Test results published in PubChem BioAssay (NCI).
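Growth conditions: 96-well plates. Treatment: test compound, 48 hours, 5 concentrations. Analysis: linear interpolation between bracketing concentrations; unreached endpoints set to highest concentration. GI50 = concentration required for 50% inhibition of growth. TGI: total growth inhibition.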

Each compound was assayed on SK-OV-3 ovarian (assay: DTP human tumour cell line panel, 48 h).

Structure (SMILES) | TGI [µM] | GI50 [µM]
CCOC(=O)c1nc2c(OC)nn(O)cc-2c1[N+](=O)[O-] | > 100 | –
C/C(CC(=O)Nc1ccc(C)c(C)c1)=N\N(c1ccccc1)c1ccccc1 | > 100 | –
COC(=O)/C(=N\NC(N)=S)C(C(=O)OC)C(=O)C(=O)Nc1ccc(C)cc1 (stereo unspecified) | > 100 | –
O=C(OC1CCC(=C2SCCCS2)[C@H]1C1SCCCS1)c1ccccc1 (stereo partly specified) | > 100 | –
O=C1CCC2(c3ccc(Cl)cc3)Nc3cc(Cl)ccc3N12 (stereo unspecified) | 40.1 | –
O=C(/C(=C/c1ccc(Cl)cc1)c1ccccc1)c1ccccc1 | 71.7 | –
CC1(C)COC(c2cccc3c2C(=O)c2cccc(Cl)c2-3)=N1 | > 100 | –
CN(C)CCC(/C=C/c1ccccc1)=N\Nc1ccccc1 | 9.8 | –
CCOC(=O)c1ccc(/C(C)=N/NC(N)=S)cc1 | > 100 | –
c1ccc2c(OCCSCCCCCCCCCCSCCOc3cccc4ccccc34)cccc2c1 | > 100 | –
NC(N)=N/N=C/c1c(Cl)cccc1Cl | > 100 | 41.6
Cc1cc2c(=O)c3ccccc3[nH]c2c(C(N)=O)c1C | > 100 | –
O=C(Nc1cccc(C(F)(F)F)c1)c1ccc(NC2=C(Cl)C(=O)N(Cc3ccc(Cl)cc3Cl)C2=O)cc1 | > 100 | 60.4
CN1CCC(=O)/C(=C/c2ccccc2)C1 | 35.3 | –

Each compound was assayed on SF-295 CNS (assay: DTP human tumour cell line panel, 48 h).

Structure (SMILES) | TGI [µM] | GI50 [µM]
COC(=O)C(=Cc1cc(OC)c(OC)c(OC)c1-c1cc2c(cc1C1(C)OCCS1)OCO2)C(=O)OC (stereo unspecified) | > 100 | –
C#CC1/C(=C\C(=O)OC)CCCC1O (stereo unspecified) | > 100 | –
CC12CCC(=O)C[C@H]1CCC(OC=O)C2Br (stereo partly specified) | > 100 | –
Clc1cc2c(c(CSc3nc4ccccc4n4cccc34)c1)OCOC2 | 39.9 | 11.7
CN1CCN(c2ccc(Nc3cc(-c4cccc(-n5ccc6cc(C7CC7)cc(F)c6c5=O)c4CO)cn(C)c3=O)nc2)CC1 | 24.2 | 10.5
COc1cnc2c(c1)C(=O)c1c-2n(CCCNC2=NCCS2)c(=O)c2cc([N+](=O)[O-])ccc12 | 0.265 | 0.0132
COc1ccc(OCC(=O)O)c2c1CCCC2=O | > 100 | –
Cc1nc(Nc2ccc(Cl)cc2)sc1C(=O)NNC(=S)NN | 34.1 | –
COc1ccc2c(c1OCC(=O)O)C(=O)C(CCC(=O)O)CC2 (stereo unspecified) | > 100 | –
COC1C(OC(=S)Nc2ccccc2)c2ccccc2N1C(C)=O (stereo unspecified) | > 100 | –
CC1=Cc2cccc(C)c2C(=O)C1=O | 11.1 | –
CC(C)(/C=C(\C#N)C(=O)N1CCC[C@@H](n2nc(-c3ccc(Oc4ccccc4)cc3F)c3c(N)ncnc32)C1)N1CCN(C2COC2)CC1 | 19.6 | 6.39
Cc1ccc(C)c(NC(=O)c2cccc([N+](=O)[O-])c2O)c1 | 41.5 | –
COCC(OC)C(CC=C(C#N)C#N)OC (stereo unspecified) | > 100 | –
NC1CCN(Cc2ccccc2)CC1 | > 100 | > 100
On1c(-c2ccccc2)c(-c2ccccc2N2CCCC2)c2ccccc21 | > 100 | –
NNC(=O)CNc1cccc(Br)c1 | > 100 | –
N#CC(C(=O)/C(=N\NC(N)=O)C(C#N)c1ccc(Cl)cc1)c1ccc(Cl)cc1 (stereo unspecified) | > 100 | –
CC(C)(C)c1cc(C(P(=O)(O)O)P(=O)(O)O)cc(C(C)(C)C)c1O | > 100 | –
CC(C)C1=Cc2ccc3c(c2C(=O)C1=O)CCCC3(C)C | 31 | –

Structure (SMILES) | TGI [µM] | GI50 [µM]
Nc1ncn([C@@H]2O[C@H](CO)[C@@H](O)[C@H]2O)c(=O)n1 | 58.7 | 2.28
CSc1nc(SC)c2c(C#N)[nH]nc2n1 | > 100 | –
COc1c(O)c2c(=O)cc3c4c5c(cc(=O)c6c(O)c(OC)c(CC(C)O)c(c(c1CC(C)O)c24)c65)OCO3 (stereo unspecified) | 6.09 | –
CC(=O)Nc1ccc(-c2csc(Nc3cccc(-c4csc(C)n4)c3)n2)cc1 | > 13.2 | 0.907
COc1ccc(CCN(C)C2CCC(C#N)(c3ccc(OC)c(OC)c3)CC2)cc1OC (stereo unspecified) | > 100 | –
COc1ccc(C(=O)Nc2ccc(O)c(=O)cc2)cc1 | > 100 | –
CCOC(=O)c1nc2c(OC)nn(O)cc-2c1[N+](=O)[O-] | > 100 | –
C/C(CC(=O)Nc1ccc(C)c(C)c1)=N\N(c1ccccc1)c1ccccc1 | > 100 | –
COC(=O)/C(=N\NC(N)=S)C(C(=O)OC)C(=O)C(=O)Nc1ccc(C)cc1 (stereo unspecified) | > 100 | –
O=C(OC1CCC(=C2SCCCS2)[C@H]1C1SCCCS1)c1ccccc1 (stereo partly specified) | > 100 | –
O=C1CCC2(c3ccc(Cl)cc3)Nc3cc(Cl)ccc3N12 (stereo unspecified) | 21.4 | –
O=C(/C(=C/c1ccc(Cl)cc1)c1ccccc1)c1ccccc1 | 39.7 | –
CC1(C)COC(c2cccc3c2C(=O)c2cccc(Cl)c2-3)=N1 | > 100 | –
CN(C)CCC(/C=C/c1ccccc1)=N\Nc1ccccc1 | 2.21 | –
CCOC(=O)c1ccc(/C(C)=N/NC(N)=S)cc1 | > 100 | –
c1ccc2c(OCCSCCCCCCCCCCSCCOc3cccc4ccccc34)cccc2c1 | > 100 | –
NC(N)=N/N=C/c1c(Cl)cccc1Cl | 30.2 | 12.4
Cc1cc2c(=O)c3ccccc3[nH]c2c(C(N)=O)c1C | > 100 | –
O=C(Nc1cccc(C(F)(F)F)c1)c1ccc(NC2=C(Cl)C(=O)N(Cc3ccc(Cl)cc3Cl)C2=O)cc1 | 35 | 13
CN1CCC(=O)/C(=C/c2ccccc2)C1 | 29.3 | –

Each compound was assayed on NCI-H460 lung (assay: DTP human tumour cell line panel, 48 h).

Structure (SMILES) | TGI [µM] | GI50 [µM]
COC(=O)C(=Cc1cc(OC)c(OC)c(OC)c1-c1cc2c(cc1C1(C)OCCS1)OCO2)C(=O)OC (stereo unspecified) | > 100 | –
C#CC1/C(=C\C(=O)OC)CCCC1O (stereo unspecified) | > 100 | –
CC12CCC(=O)C[C@H]1CCC(OC=O)C2Br (stereo partly specified) | > 100 | –
Clc1cc2c(c(CSc3nc4ccccc4n4cccc34)c1)OCOC2 | > 100 | > 100
CN1CCN(c2ccc(Nc3cc(-c4cccc(-n5ccc6cc(C7CC7)cc(F)c6c5=O)c4CO)cn(C)c3=O)nc2)CC1 | 15.7 | 3.83
COc1cnc2c(c1)C(=O)c1c-2n(CCCNC2=NCCS2)c(=O)c2cc([N+](=O)[O-])ccc12 | 1.24 | < 0.01
COc1ccc(OCC(=O)O)c2c1CCCC2=O | > 100 | –
Cc1nc(Nc2ccc(Cl)cc2)sc1C(=O)NNC(=S)NN | 38.3 | –
CCOC(=O)N[C@H]1CCc2cc(OC)c(OC)c(OC)c2-c2ccc(SC)c(=O)cc21 | > 100 | –
COc1ccc2c(c1OCC(=O)O)C(=O)C(CCC(=O)O)CC2 (stereo unspecified) | > 100 | –
Cc1ccc2nc(/C(=C/c3ccc(/C=C(\NC(=O)c4ccccc4)c4nc5ccc(C)cc5[nH]4)c(C)c3)NC(=O)c3ccccc3)[nH]c2c1 | 35.8 | –
COC1C(OC(=S)Nc2ccccc2)c2ccccc2N1C(C)=O (stereo unspecified) | > 100 | –
O=C(Nc1cccc(Cl)c1)C(=O)C(C(=O)c1ccc2ccccc2c1)C1OC(=O)c2ccccc21 (stereo unspecified) | 30.5 | –
CC1=Cc2cccc(C)c2C(=O)C1=O | 41.9 | –
CC(C)(/C=C(\C#N)C(=O)N1CCC[C@@H](n2nc(-c3ccc(Oc4ccccc4)cc3F)c3c(N)ncnc32)C1)N1CCN(C2COC2)CC1 | 20.8 | 6.3
Cc1ccc(C)c(NC(=O)c2cccc([N+](=O)[O-])c2O)c1 | 68.4 | –
NC1CCN(Cc2ccccc2)CC1 | > 100 | > 100
On1c(-c2ccccc2)c(-c2ccccc2N2CCCC2)c2ccccc21 | > 100 | –
NNC(=O)CNc1cccc(Br)c1 | > 100 | –
N#CC(C(=O)/C(=N\NC(N)=O)C(C#N)c1ccc(Cl)cc1)c1ccc(Cl)cc1 (stereo unspecified) | > 100 | –
CC(C)(C)c1cc(C(P(=O)(O)O)P(=O)(O)O)cc(C(C)(C)C)c1O | > 100 | –
CC(C)C1=Cc2ccc3c(c2C(=O)C1=O)CCCC3(C)C | 37 | –
Nc1ncn([C@@H]2O[C@H](CO)[C@@H](O)[C@H]2O)c(=O)n1 | 1.78 | 0.232
CSc1nc(SC)c2c(C#N)[nH]nc2n1 | > 100 | –
COc1c(O)c2c(=O)cc3c4c5c(cc(=O)c6c(O)c(OC)c(CC(C)O)c(c(c1CC(C)O)c24)c65)OCO3 (stereo unspecified) | 2.32 | –
CC(=O)Nc1ccc(-c2csc(Nc3cccc(-c4csc(C)n4)c3)n2)cc1 | > 50 | 1
COc1ccc(CCN(C)C2CCC(C#N)(c3ccc(OC)c(OC)c3)CC2)cc1OC (stereo unspecified) | > 100 | –
COc1ccc(C(=O)Nc2ccc(O)c(=O)cc2)cc1 | 28.7 | –
CCOC(=O)c1nc2c(OC)nn(O)cc-2c1[N+](=O)[O-] | 49.2 | –
